The results in this text go back to patent EP4782450A1, “NOVEL SKELETAL DERIVATIVE EFFECTIVE FOR HER2 MUTATION, AND PHARMACEUTICAL COMPOSITION COMPRISING SAME” (Hanmi Pharm. Co., Ltd., priority 2023, dated 2025).

Where two headings read alike, the source gives them in different places.

For one test, the system named is Ba/F3 HER2 A775insYVMA. Put plainly: Growth inhibition of Ba/F3 cells engineered to overexpress HER2 A775_G776insYVMA (CellTiter-Glo luminescence). In kind it is cell-based. The following applies: concentrations 1000 to 0.32 nM, read-out: Ba/F3 HER2^YVMA GI50 class. In outline: (§1)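 Ba/F3 cells overexpressing HER2 A775_G776insYVMA (1000–0.32 nM) or wild-type EGFR (10000–8 nM) treated 72 h at 37°C in RPMI/10% FBS. Viability by CellTiter-Glo luminescence; GI50 by nonlinear regression with untreated growth set at 100%.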

Test [1] concerns wild-type EGFR overexpressing Ba/F3 cells. The experiment in a line: Growth inhibition of Ba/F3 cells engineered to overexpress wild-type EGFR (CellTiter-Glo luminescence). It is filed as cell-based. As to conditions: concentrations 10000 to 8 nM, read-out: Ba/F3 EGFR^WT GI50 class. In outline: as §1
On the technique in general: Cellular ATP, detected with luciferase, serves as a proxy for viable cell number.

Regarding `C=CC(=O)NC/C=C/c1ccc2ncnc(Nc3ccc(Oc4cnc5c(c4)ncn5C)c(C)c3)c2n1` [Example 34, (E)-N-(3-(4-((3-methyl-4-((3-methyl-3H-imidazo[4,5-b]pyridin-6-yl)oxy)phenyl)amino)pyrido[3,2-d]pyrimidin-6-yl)allyl)acrylamide], the GI50 with Ba/F3 HER2 A775insYVMA (Mus musculus, BaF3, 72 hours) is less than 100 nM; in test [1] (Mus musculus, BaF3, 72 hours), more than 5000 nM.

On to `C=CC(=O)N1CC(/C=C/c2ccc3ncnc(Nc4ccc(Oc5ccc6cn(C)nc6c5)c(C)c4)c3n2)C1` [Example 48, (E)-1-(3-(2-(4-((3-methyl-4-((2-methyl-2H-indazol-6-yl)oxy)phenyl)amino)pyrido[3,2-d]pyrimidin-6-yl)vinyl)azetidin-1-yl)prop-2-en-1-one], for which the GI50 in the test with Ba/F3 HER2 A775insYVMA (Mus musculus, BaF3, 72 hours) was 100 to 1000 nM; in test [1] (Mus musculus, BaF3, 72 hours), more than 5000 nM.

Consider `C=CC(=O)N(C)CCN(C)c1ncc2ncnc(Nc3ccc(Oc4ccc5c(c4)ncn5C)c(C)c3)c2n1` [Example 19, N-methyl-N-(2-(methyl(8-((3-methyl-4-((1-methyl-1H-benzo[d]imidazol-5-yl)oxy)phenyl)amino)pyrimido[5,4-d]pyrimidin-2-yl)amino)ethyl)acrylamide], for which the GI50 was 100 to 1000 nM in the test on Ba/F3 HER2 A775insYVMA (Mus musculus, BaF3, 72 hours) and more than 5000 nM in test [1] (Mus musculus, BaF3, 72 hours).

Regarding `C=CC(=O)N(C)CC#Cc1ccc2ncnc(Nc3ccc(Oc4ccc5c(c4)ncn5C)c(C)c3)c2n1` [Example 71, N-methyl-N-(3-(4-((3-methyl-4-((1-methyl-1H-benzo[d]imidazol-5-yl)oxy)phenyl)amino)pyrido[3,2-d]pyrimidin-6-yl)prop-2-yn-1-yl)acrylamide], the GI50 in the test on Ba/F3 HER2 A775insYVMA (Mus musculus, BaF3, 72 hours) is 100 to 1000 nM; in test [1] (Mus musculus, BaF3, 72 hours), 1000 to 5000 nM.

As for `C=CC(=O)N1CCC[C@H]1C#Cc1ccc2ncnc(Nc3ccc(Oc4ccn5ncnc5c4)c(C)c3)c2n1` [Example 81, (S)-1-(2-((4-((4-([1,2,4]triazolo[1,5-a]pyridin-7-yloxy)-3-methylphenyl)amino)pyrido[3,2-d]pyrimidin-6-yl)ethynyl)pyrrolidin-1-yl)prop-2-en-1-one], the GI50 was less than 100 nM in the test with Ba/F3 HER2 A775insYVMA (Mus musculus, BaF3, 72 hours) and 100 to 1000 nM in test [1] (Mus musculus, BaF3, 72 hours).

For `C=CC(=O)N1CCCC(/C=C/c2ccc3ncnc(Nc4ccc(Oc5ccc6c(c5)ncn6C)c(C)c4)c3n2)C1` (stereo not shown) [Example 27, (E)-1-(3-(2-(4-((3-methyl-4-((1-methyl-1H-benzo[d]imidazol-5-yl)oxy)phenyl)amino)pyrido[3,2-d]pyrimidin-6-yl)vinyl)piperidin-1-yl)prop-2-en-1-one], the GI50 was in the range of 100 to 1000 nM in the test on Ba/F3 HER2 A775insYVMA (Mus musculus, BaF3, 72 hours) and 1000 to 5000 nM in test [1] (Mus musculus, BaF3, 72 hours).

Regarding `C=CC(=O)N(C)CC#Cc1cc2c(Nc3ccc(Oc4ccn5ncnc5c4)c(C)c3)ncnc2cn1` [Example 67, N-(3-(4-((4-([1,2,4]triazolo[1,5-a]pyridin-7-yloxy)-3-methylphenyl)amino)pyrido[3,4-d]pyrimidin-6-yl)prop-2-yn-1-yl)-N-methylacrylamide], the GI50 in the test with Ba/F3 HER2 A775insYVMA (Mus musculus, BaF3, 72 hours) is 100 to 1000 nM; in test [1] (Mus musculus, BaF3, 72 hours), 100 to 1000 nM.

In the case of `C=CC(=O)N1CCCC[C@H]1C#Cc1ccc2ncnc(Nc3ccc(Oc4ccn5ncnc5c4)c(C)c3)c2c1` [Example 77, (S)-1-(2-((4-((4-([1,2,4]triazolo[1,5-a]pyridin-7-yloxy)-3-methylphenyl)amino)quinazolin-6-yl)ethynyl)piperidin-1-yl)prop-2-en-1-one], the GI50 was less than 100 nM in the test on Ba/F3 HER2 A775insYVMA (Mus musculus, BaF3, 72 hours) and less than 100 nM in test [1] (Mus musculus, BaF3, 72 hours).

On to `C=CC(=O)N(C)CCOc1ncc2ncnc(Nc3ccc(Oc4ccc5c(c4)ncn5C)c(C)c3)c2n1` [Example 8, N-methyl-N-(2-((8-((3-methyl-4-((1-methyl-1H-benzo[d]imidazol-5-yl)oxy)phenyl)amino)pyrimido[5,4-d]pyrimidin-2-yl)oxy)ethyl)acrylamide], for which the GI50 in the test with Ba/F3 HER2 A775insYVMA (Mus musculus, BaF3, 72 hours) lay in the range of 100 to 1000 nM; in test [1] (Mus musculus, BaF3, 72 hours) it was 1000 to 5000 nM.

Turning to `C=CC(=O)N1CCCC[C@H]1C#Cc1ccc2ncnc(Nc3ccc(Oc4ccc5c(c4)ncn5C)c(C)c3)c2n1` [Example 89, (S)-1-(2-((4-((3-methyl-4-((1-methyl-1H-benzo[d]imidazol-5-yl)oxy)phenyl)amino)pyrido[3,2-d]pyrimidin-6-yl)ethynyl)piperidin-1-yl)prop-2-en-1-one], the GI50 is less than 100 nM with Ba/F3 HER2 A775insYVMA (Mus musculus, BaF3, 72 hours) and 1000 to 5000 nM in test [1] (Mus musculus, BaF3, 72 hours).

In the case of `C=CC(=O)N(C)C/C=C/c1ccc2ncnc(Nc3cc(C)c(Oc4ccc5c(c4)ncn5C)cc3OC)c2n1` [Example 54, (E)-N-(3-(4-((2-methoxy-5-methyl-4-((1-methyl-1H-benzo[d]imidazol-5-yl)oxy)phenyl)amino)pyrido[3,2-d]pyrimidin-6-yl)allyl)-N-methylacrylamide], the GI50 is less than 100 nM in the test on Ba/F3 HER2 A775insYVMA (Mus musculus, BaF3, 72 hours) and more than 5000 nM in test [1] (Mus musculus, BaF3, 72 hours).

Regarding `C=CC(=O)N(C)CC#Cc1ncc2ncnc(Nc3ccc(Oc4ccc5c(c4)ncn5C)c(C)c3)c2n1` [Example 72], the GI50 with Ba/F3 HER2 A775insYVMA (Mus musculus, BaF3, 72 hours) is 100 to 1000 nM; in test [1] (Mus musculus, BaF3, 72 hours), less than 100 nM.

For `C=CC(=O)N1CC(/C=C/c2ccc3ncnc(Nc4ccc(Oc5cnc6c(c5)ncn6C)c(C)c4F)c3n2)C1` [Example 47], the GI50 in the test on Ba/F3 HER2 A775insYVMA (Mus musculus, BaF3, 72 hours) was less than 100 nM; in test [1] (Mus musculus, BaF3, 72 hours) it was 1000 to 5000 nM.

Consider “N-(2-((4-((4-([1,2,4]triazolo[1,5-a]pyridin-7-yloxy)-3-methylphenyl)amino)pyrido[3,2-d]pyrimidin-6-yl)amino)ethyl)-N-methylacrylamide [Example 11]”, for which the GI50 in the test with Ba/F3 HER2 A775insYVMA (72 hours) was in the range of 100 to 1000 nM; in test [1] (72 hours) it was 1000 to 5000 nM.

As to `C=CC(=O)N1CCC[C@@H]1C#Cc1ncc2ncnc(Nc3ccc(Oc4ccn5ncnc5c4)c(C)c3)c2n1` [Example 83, (R)-1-(2-((8-((4-([1,2,4]triazolo[1,5-a]pyridin-7-yloxy)-3-methylphenyl)amino)pyrimido[5,4-d]pyrimidin-2-yl)ethynyl)pyrrolidin-1-yl)prop-2-en-1-one], the GI50 with Ba/F3 HER2 A775insYVMA (Mus musculus, BaF3, 72 hours) is less than 100 nM; in test [1] (Mus musculus, BaF3, 72 hours) it was less than 100 nM.

As for `C=CC(=O)N(C)CC#Cc1ccc2ncc(C#N)c(Nc3ccc(Oc4ccn5ncnc5c4)c(C)c3)c2c1` [Example 70, N-(3-(4-((4-([1,2,4]triazolo[1,5-a]pyridin-7-yloxy)-3-methylphenyl)amino)-3-cyanoquinolin-6-yl)prop-2-yn-1-yl)-N-methylacrylamide], the GI50 in the test on Ba/F3 HER2 A775insYVMA (Mus musculus, BaF3, 72 hours) is 100 to 1000 nM; in test [1] (Mus musculus, BaF3, 72 hours), 1000 to 5000 nM.

In the case of `Cc1cc(Nc2ncnc3ccc(/C=C/CNC(=O)/C=C/CN(C)C)nc23)ccc1Oc1ccc2c(c1)ncn2C` [Example 40, (E)-4-(dimethylamino)-N-((E)-3-(4-((3-methyl-4-((1-methyl-1H-benzo[d]imidazol-5-yl)oxy)phenyl)amino)pyrido[3,2-d]pyrimidin-6-yl)allyl)but-2-enamide], the GI50 with Ba/F3 HER2 A775insYVMA (Mus musculus, BaF3, 72 hours) is less than 100 nM; in test [1] (Mus musculus, BaF3, 72 hours), more than 5000 nM.
